According to US6458837B1, “Lipophilic diesters of chelating agents” (D-Pharm Ltd., priority 1997, dated 2002):
Marks after values point to notes of the source that are not given here.

Legend:
[1] = Octanol-saline partition coefficient (lipophilicity); format: physicochemical; conditions: for LogPc, octanol-saline partition coefficient, M = Ca++: calcium salt (BAPTA: dicalcium salt); for LogPc, octanol-saline partition coefficient, M = Ca++ / LogPc, octanol-saline partition coefficient, M = Na+: octanol/physiological saline, 26° C.; for LogPc, octanol-saline partition coefficient, M = Na+: sodium salt (BAPTA: tetrasodium salt)
Procedure: The lipophilicity values of several BAPTA diesters salts of the invention were studied by comparing the solubility of these compounds in organic versus aqueous solutions. Octanol and physiological saline were used, respectively, as the organic and aqueous solutions. The partition coefficient (Pc), i.e the distribution ratio between the organic and the aqueous phases were determined for several specific BAPTA diesters salts of the general formula I: [drawing 6]

[2] = Water/octanol distribution of Ca++ ions; format: physicochemical; conditions: 15 ml octanol / 15 ml saline pH 6.5; CaCl2 2×10^−3 M/L
Procedure: (§1) The hydrophilic/hydrophobic system used in this set of experiments consisted of 15 ml octanol and 15 ml saline pH=6.5. DP-BAPTA 99 was dissolved in the octanol solution before this phase was mixed with the saline. The DP-BAPTA concentration in the different experiments varied from 2.1×10^−6 to 5.5×10^−4 M/L in the experiments with Ca^2+ and from 5.4×10^−6 to 1.4×10^−3 M/L in the experiments with either Zn^2+ or Fe^2+, as indicated for each point in FIGS. 1A-C. The corresponding metal ions were added in the aqueous solution as chlorides at the following concentrations: FeCl2 2×10^−3 M/L, ZnCl2 10^−4 M/L, CaCl2 2×10^−3 M/L.
(§2) The octanol and buffer phases were mixed and vortexed for 1 hr at room temperature, followed by centrifugation at 4000 rpm, 10 min in order to separate the mixture to the two phases.
(§3) Different analytical procedures were employed for water and octanol samples: i) Water samples were analyzed versus ICP standards from Merk. Ca and Zn were determined in tested solutions by inductively coupled plasma atomic emission spectrometry. An ICP-AES, model “Spectroflame Modula E” from Spectro, Kleve, Germany was used, with a standard cross flow nebulizer and fixed EOP torch. The power level was 1.2 kW, coolant flow—15 l/min, auxilliary flow 0.5 l/min and nebulizer flow—0.5 l/min. ii) Octanol samples, 2-ml each, in a glass tube, were transferred to a heating block. […]

[3] = system: cultured neuronal cells of rat hippocampus; test: Intracellular Ca++ concentration, Fluo-3/AM fluorescence; format: cell-based; conditions: 1 mM in 9 sec. pulse applied onto cultured hippocampal neurons
[4] = system: Na/K-ATPase; test: Na/K-ATPase activity in mouse brain cortex homogenate; format: biochemical; conditions: 10^−7 to 10^2 μg/ml; mouse cerebral cortex homogenate
Procedure: Thus, the effects of BAPTA-diesters on Na/K-ATPase activity were examined in mouse brain homogenates treated with different concentrations of diethyl-BAPTA (DP-BAPTA 27, disodium salt). The BAPTA-diester tested concentrations ranged from 10^−7 to 10^2 μg/ml.
Preparation of mouse brain homoganate. Male CD-1 mice (10 to 21 days of age) were sacrificed by rapid decapitation. The skull was opened, the brains removed and cut into two. The cortex was isolated, put into sodium Ringer's buffer, washed three times with ice cold PBS and kept on ice. The brain tissue was homogenized using a Polytron at 14000 rpm for 4×30 seconds, on ice. The homogenization buffer contained: 250 mM Sucrose; 1 mM EGTA; 20 mM HEPES-Tris, pH 7.4, and the protease inhibitor PMSF.
The homogenate was span down in a Sorval refrigerated centrifuge at 27000 g for 30 minutes. The membrane fraction was collected and re-suspended in the homogenization buffer. […]
Na/K-ATPase assay. Na/K ATPase was measured as described before (Norby J, G. Coupled (1988) Assay of the Na^+—K^+ ATPase Activity. Methods in Enzymology. 156: 116-119) in the absence and presence of the Na/K-ATPase inhibitor, ouabain (3 mM). The Protein content was determined using the Bio Rad-Bradford assay as previously described (Bradford, M. (1978) Protein assay. Ann. Biochem. 72: 248-257.).

[5] = system: Mongolian gerbils; conditions: for neuroprotective activity, sodium salt compared with calcium salt: global forebrain ischemia model; for neuronal damage (serum NSE activity 24 hours after ischemia): single dose 5μg/kg i.p. at onset of reperfusion (t=0) or 3 hours after (t=3), 10 min ischemia
Procedure: (§4) Animal. Male Mongolian gerbils 60-70 g (Charles River Laboratories, USA) were used for the study.
(§5) Induction of ischemia. Anesthesia was induced in gerbils with halothane (4%) in an anesthesia chamber (30% oxygen, 70% nitrous oxide) and was maintained with 1% halohtane in 30% oxygen and 70% nitrous oxide using face masks. For ischemia induction, both common carotid arteries were isolated via a neck midline incision and temporarily occluded for 10 or 20 min, as indicated, using arterial clips. During the entire period of cerebral ischemia, when the clips were in place, anesthesia was maintained only with 30% oxygen and 70% nitrous oxide, without halothane. Rectal temperature, monitored with a rectal probe, was maintained throughout ischemia at 37-37.5° C. by using a warming lamp and heating pad. Whenever applied, the tested BAPTA diesters were administered to the animals either parenterally via i.p. or orally, at the times and dosages as indicated in each particular experiment. Control animals were treated with the vehicle alone, i.e with 0.9% NaCl solution instead of the PABTA diester compound.
Statistics. Statistical analysis was carried out using the Student's t-test with Bonferroni corrections and p<0.05 as the level of significance.
Neuronal-specific enolase (NSE) assay. Blood samples were taken from the orbital sinus of gerbils 24 and 72 hours after 10 min period of cerebral ischemia. Blood samples were centrifuged for 5 min at 3000 rpm to obtain serum (the supernatant fraction). NSE activity in the serum was determined by radioimmunoassay using NSE kit (Pharmatope Ltd.,Israel).
The enzymatic activity of neuronal-specific enolase (NSE ) in the serum was used for evaluating the efficacy of the tested BAPTA-diesters in preventing neuronal damage. […] Thus, NSE may serve as a quantitative marker for the degree of neuronal damage.

[6] = system: Mongolian gerbils; test: Global forebrain ischemia, animal survival; format: in vivo; conditions: 10 μg/kg i.p. single dose at onset of reperfusion; 20 min ischemia
Procedure: as §4, §5

[7] = system: Mongolian gerbils; conditions: 5 μg/kg i.p. single dose immediately after 10 minutes ischemia; three days after ischemia
[8] = Water/octanol distribution of Zn++ ions; format: physicochemical; conditions: 15 ml octanol / 15 ml saline pH 6.5; ZnCl2 10^−4 M/L
Procedure: as §1, §2, §3

[9] = Water/octanol distribution of Fe++ ions; format: physicochemical; conditions: 15 ml octanol / 15 ml saline pH 6.5; FeCl2 2×10^−3 M/L
Procedure: as §1, §2, §3

[10] = system: cultured hippocampal neurons; conditions: 0.1, 1.0 or 10.0 μg/ml perfused 5 minutes; 40 millisecond K+ pulses
[11] = system: Wistar rats; test: Pilocarpine-induced epilepsy; conditions: i.p. one hour before pilocarpine 400 mg/kg

Structure (SMILES)	LogPc, octanol-saline partition coefficient, M = Ca++ [1]	LogPc, octanol-saline partition coefficient, M = Na+ [1]	drug concentration at which transfer of Ca++ ions from water to octanol is evident [2]	effect on intracellular calcium levels (Fluo-3 fluorescence) [3]	effect on Na/K-ATPase activity [4]	neuroprotective activity, sodium salt compared with calcium salt [5]	neuronal damage (serum NSE activity 24 hours after ischemia) [5]	extension of survival time [6] [fold]	ischemia-induced neuronal damage in CA-2, CA-3 and dentate gyrus regions of the hippocampus [7]	lipophilicity relative to the sodium salt of the parent molecule BAPTA ([1]; octanol versus aqueous phase)	drug concentration at which transfer of Zn++ ions from water to octanol is evident [8] [µM]	drug concentration at which transfer of Fe++ ions from water to octanol is evident [9] [µM]	serum NSE activity 24 h and 72 h after global cerebral ischemia ([5]; oral, 0.5 mg/kg 4 hours before and at onset of reperfusion, or 0.5 mg/kg daily for 3 days after ischemia)	effect on potassium-induced increase in intracellular calcium ion concentration [10]	effect on generalized seizures [11]	effect on limbic seizures [11]	effect on mortality during the 3 hour period of status epilepticus [11]	prevention of status epilepticus [11]
O=C(O)CN(CC(=O)O)c1ccccc1OCCOc1ccccc1N(CC(=O)O)CC(=O)O [BAPTA, 1,2-bis(2 aminophenoxy)ethane-N,N,N′,N′-tetraacetic acid, reference compound]	−1.71^d)	−3.3^c)	does not	only insignificant increase in intracellular Ca^2+	–	–	–	–	–	–	–	–	–	–	–	–	–	–
CCOC(=O)CN(CC(=O)O)c1ccccc1OCCOc1ccccc1N(CC(=O)O)CC(=O)OCC [DP-BAPTA 27, diethyl-BAPTA]	–	–	–	–	dose dependent increase in Na/K-ATPase activity	–	–	–	–	–	–	–	–	–	–	–	–	–
CCCCCCCCOC(=O)CN(CC(=O)O)c1ccccc1OCCOc1ccccc1N(CC(=O)O)CC(=O)OCCCCCCCC [DP-BAPTA-60, Octyl diester of BAPTA]	0.79	0.85	–	–	–	equally effective	prevented neuronal damage	2	effective in decreasing the ischemia-induced neuronal damage in the same regions, albeit to a lesser extent than DP-BAPTA 99	–	–	–	–	–	–	–	–	–
CCCCCCCCOCCOC(=O)CN(CC(=O)O)c1ccccc1OCCOc1ccccc1N(CC(=O)O)CC(=O)OCCOCCCCCCCC [DP-BAPTA-99, BAPTA diester of octylethylene glycol]	1.10	0.80	250 to 500 µM	–	–	much pronounced neuroprotective activity comparing to the calcium salt	prevented neuronal damage	3	significant neuroprotective effect	10,000 fold	10	250 to 500	significant reduction in NSE activity	attenuates potassium-induced increase in intracellular calcium ion concentration	capable of preventing generalized seizures	no effect	reduces mortality	about half of the population
